pIC50: −log10 of the molar value.
Target: CDK2 (human) (UniProt P24941)
Test: Enzyme Assay

pIC50 | SMILES
6.00 to 8.00 | COCc1[nH]nc2c1N=C(c1ccccc1Cl)c1cc([N+](=O)[O-])ccc1N2
6.00 to 8.00 | CCOC(=O)c1ccc2c(c1)C(c1ccccc1F)=Nc1c[nH]nc1N2
6.00 to 8.00 | Cc1[nH]nc2c1N=C(c1ccccc1F)c1cc(I)ccc1N2
6.00 to 8.00 | CCCc1[nH]nc2c1N=C(c1ccccc1Cl)c1cc([N+](=O)[O-])ccc1N2
6.00 to 8.00 | Cc1[nH]nc2c1N=C(c1ccccc1Cl)c1cc(NS(=O)(=O)N3CCOCC3)ccc1N2
6.00 to 8.00 | O=[N+]([O-])c1ccc2c(c1)C(c1ccccc1)=Nc1c[nH]nc1N2
6.00 to 8.00 | Cc1[nH]nc2c1N=C(c1ccccc1F)c1cc(Cl)ccc1N2
6.00 to 8.00 | Cc1[nH]nc2c1N=C(c1ccccc1Cl)c1ccccc1N2
6.00 to 8.00 | NC(=O)c1[nH]nc2c1N=C(c1ccccc1Cl)c1cc([N+](=O)[O-])ccc1N2
6.00 to 8.00 | Cc1[nH]nc2c1N=C(c1ccccc1C(F)(F)F)c1cc([N+](=O)[O-])ccc1N2
6.00 to 8.00 | Cc1[nH]nc2c1N=C(c1ccccc1Cl)c1cc(NS(=O)(=O)N(C)C)ccc1N2
6.00 to 8.00 | Cc1cccc(S)c1-c1[nH]nc2c1N=C(c1ccccc1Cl)c1cc([N+](=O)[O-])ccc1N2
6.00 to 8.00 | O=[N+]([O-])c1ccc2c(c1)C(c1ccccc1Cl)=Nc1c(n[nH]c1CO)N2
6.00 to 8.00 | O=[N+]([O-])c1cccc(C2=Nc3c[nH]nc3Nc3ccc([N+](=O)[O-])cc32)c1
6.00 to 8.00 | O=[N+]([O-])c1ccc2c(c1)C(c1ccccc1Cl)=Nc1c(n[nH]c1-c1ccccc1S)N2
6.00 to 8.00 | Cc1[nH]nc2c1N=C(c1ccccc1F)c1cc(C(=O)NCCO)ccc1N2
6.00 to 8.00 | Cc1[nH]nc2c1N=C(c1ccccc1F)c1cc(C(=O)NCCN3CCOCC3)ccc1N2
6.00 to 8.00 | O=[N+]([O-])c1ccc2c(c1)C(c1ccccc1Cl)=Nc1c(n[nH]c1C1CC1)N2
6.00 to 8.00 | O=C(NCCO)c1ccc2c(c1)C(c1ccccc1F)=Nc1c[nH]nc1N2
6.00 to 8.00 | Cc1[nH]nc2c1N=C(c1ccccc1)c1ccccc1N2
6.00 to 8.00 | O=[N+]([O-])c1ccc2c(c1)C(c1ccccc1Cl)=Nc1c(n[nH]c1-c1ccc(OC(F)(F)F)cc1)N2
6.00 to 8.00 | O=[N+]([O-])c1ccc2c(c1)C(c1ccccc1Cl)=Nc1c(n[nH]c1-c1c[nH]cn1)N2
6.00 to 8.00 | O=[N+]([O-])c1ccc2c(c1)C(c1ccccc1Cl)=Nc1c(n[nH]c1-c1cccc(S)c1)N2
6.00 to 8.00 | CCOC(=O)c1ccc2c(c1)C(c1ccccc1F)=Nc1c(n[nH]c1C)N2

pIC50 | SMILES
6.00 to 8.00 | CSc1ccc(-c2[nH]nc3c2N=C(c2ccccc2Cl)c2cc([N+](=O)[O-])ccc2N3)cc1
6.00 to 8.00 | O=[N+]([O-])c1cccc(-c2[nH]nc3c2N=C(c2ccccc2Cl)c2cc([N+](=O)[O-])ccc2N3)c1
6.00 to 8.00 | CC(C)c1[nH]nc2c1N=C(c1ccccc1Cl)c1cc([N+](=O)[O-])ccc1N2
6.00 to 8.00 | O=[N+]([O-])c1ccc2c(c1)C(c1ccccc1Cl)=Nc1c(n[nH]c1C(F)(F)F)N2
6.00 to 8.00 | O=[N+]([O-])c1ccc2c(c1)C(c1ccccc1Cl)=Nc1c(n[nH]c1-c1ccncc1)N2
6.00 to 8.00 | COc1cc(O)ccc1-c1[nH]nc2c1N=C(c1ccccc1Cl)c1cc([N+](=O)[O-])ccc1N2
6.00 to 8.00 | Cc1[nH]nc2c1N=C(c1ccccc1Cl)c1cc([N+](=O)[O-])ccc1N2
6.00 to 8.00 | Cc1[nH]nc2c1N=C(c1ccccc1Cl)c1cc(NS(=O)(=O)NCCl)ccc1N2
6.00 to 8.00 | O=C(c1ccc2c(c1)C(c1ccccc1F)=Nc1c[nH]nc1N2)N1CCOCC1
6.00 to 8.00 | O=[N+]([O-])c1ccc2c(c1)C(c1ccccc1Cl)=Nc1c[nH]nc1N2
6.00 to 8.00 | Cc1[nH]nc2c1N=C(c1ccccc1Cl)c1cc(NS(C)(=O)=O)ccc1N2
6.00 to 8.00 | CCC(C)c1[nH]nc2c1N=C(c1ccccc1Cl)c1cc([N+](=O)[O-])ccc1N2 (stereo not drawn)
6.00 to 8.00 | CC(C)c1[nH]nc2c1N=C(c1ccccc1Cl)c1cc(N)ccc1N2
6.00 to 8.00 | Cc1[nH]nc2c1N=C(c1ccccc1F)c1cc(C(N)=O)ccc1N2
6.00 to 8.00 | Cc1[nH]nc2c1N=C(c1ccccc1F)c1cc(C#N)ccc1N2
6.00 to 8.00 | C=Cc1[nH]nc2c1N=C(c1ccccc1Cl)c1cc([N+](=O)[O-])ccc1N2
6.00 to 8.00 | O=[N+]([O-])c1ccc2c(c1)C(c1ccccc1Cl)=Nc1c(n[nH]c1-c1ccccc1)N2
6.00 to 8.00 | COc1ccc2c(c1)C(c1ccccc1Cl)=Nc1c(n[nH]c1C)N2
6.00 to 8.00 | O=[N+]([O-])c1ccc2c(c1)C(c1ccccc1F)=Nc1c[nH]nc1N2
6.00 to 8.00 | O=[N+]([O-])c1ccc2c(c1)C(c1ccccc1)=Nc1c(n[nH]c1C1CC1)N2
6.00 to 8.00 | O=[N+]([O-])c1ccc2c(c1)C(c1ccccc1Cl)=Nc1c(n[nH]c1-n1cccn1)N2
6.00 to 8.00 | O=[N+]([O-])c1ccc2c(c1)C(c1ccccc1Cl)=Nc1c(n[nH]c1-c1cc[nH]n1)N2
6.00 to 8.00 | O=Cc1[nH]nc2c1N=C(c1ccccc1Cl)c1cc([N+](=O)[O-])ccc1N2
6.00 to 8.00 | O=[N+]([O-])c1ccc2c(c1)C(c1ccccc1C(F)(F)F)=Nc1c[nH]nc1N2

pIC50 | SMILES
6.00 to 8.00 | O=[N+]([O-])c1ccc2c(c1)C(c1ccccc1Cl)=Nc1c(n[nH]c1-c1cccc3c1OCO3)N2
6.00 to 8.00 | NC(=O)c1ccc2c(c1)C(c1ccccc1F)=Nc1c[nH]nc1N2
6.00 to 8.00 | O=[N+]([O-])c1ccc2c(c1)C(c1ccccc1Cl)=Nc1c(n[nH]c1-c1ccco1)N2
6.00 to 8.00 | Cc1[nH]nc2c1N=C(c1ccccc1F)c1cc([N+](=O)[O-])ccc1N2
6.00 to 8.00 | Cc1[nH]nc2c1N=C(c1ccccc1F)c1ccccc1N2
6.00 to 8.00 | Cc1[nH]nc2c1N=C(c1ccccc1F)c1cc(C(=O)N3CCOCC3)ccc1N2
6.00 to 8.00 | Cc1[nH]nc2c1N=C(c1ccccc1)c1cc([N+](=O)[O-])ccc1N2
6.00 to 8.00 | N#Cc1ccc2c(c1)C(c1ccccc1F)=Nc1c(n[nH]c1CO)N2
6.00 to 8.00 | Cc1cn[nH]c1-c1[nH]nc2c1N=C(c1ccccc1Cl)c1cc([N+](=O)[O-])ccc1N2
6.00 to 8.00 | O=[N+]([O-])c1ccc2c(c1)C(c1ccccc1Cl)=Nc1c(n[nH]c1-c1ccc[nH]1)N2
6.00 to 8.00 | NNC(=O)c1[nH]nc2c1N=C(c1ccccc1Cl)c1cc([N+](=O)[O-])ccc1N2
6.00 to 8.00 | O=[N+]([O-])c1ccc2c(c1)C(c1ccccc1Cl)=Nc1c(n[nH]c1-c1ccc(-c3ccccc3)cc1)N2
6.00 to 8.00 | Cc1[nH]nc2c1N=C(c1ccccc1F)c1cc(F)ccc1N2
6.00 to 8.00 | Clc1ccccc1C1=Nc2c[nH]nc2Nc2ccccc21
6.00 to 8.00 | Cc1[nH]nc2c1N=C(c1ccccc1)c1cc(Cl)ccc1N2
6.00 to 8.00 | C=CC(=O)Nc1ccc2c(c1)C(c1ccccc1Cl)=Nc1c(n[nH]c1C)N2
6.00 to 8.00 | CCc1[nH]nc2c1N=C(c1ccccc1Cl)c1cc([N+](=O)[O-])ccc1N2
6.00 to 8.00 | CC(=O)Nc1ccc2c(c1)C(c1ccccc1Cl)=Nc1c(n[nH]c1C)N2
6.00 to 8.00 | O=[N+]([O-])c1ccc2c(c1)C(c1ccccc1Cl)=Nc1c(n[nH]c1-c1nccs1)N2
6.00 to 8.00 | Cc1[nH]nc2c1N=C(c1ccccc1)c1cc(F)ccc1N2
6.00 to 8.00 | O=[N+]([O-])c1ccc2c(c1)C(c1ccccc1Cl)=Nc1c(n[nH]c1-c1cccnc1)N2
6.00 to 8.00 | Cc1[nH]nc2c1N=C(c1ccccc1Cl)c1cc(Cl)ccc1N2
6.00 to 8.00 | N#Cc1[nH]nc2c1N=C(c1ccccc1Cl)c1cc([N+](=O)[O-])ccc1N2

SMILES | pIC50
N#Cc1ccc2c(c1)C(c1ccccc1F)=Nc1c[nH]nc1N2 | 6.00 to 8.00
Cc1[nH]nc2c1N=C(c1ccccc1Cl)c1cc(N)ccc1N2 | 6.00 to 8.00
